Experimental data reported in paper PMC5907308, “21st Brazilian Diabetes Society Congress” (Diabetology & Metabolic Syndrome, 2018).
Like-named read-outs stand apart in the source and are kept apart here.

Legend:
[1] = test system: Gram-positive; experiment: Antibiogram of tissue fragment cultures of infected diabetic foot ulcers, Gram-positive; assay type: cell-based; details: 51 cultures of tissue fragment, WHONET 5.6, Graphic 2
Source text: DFU patients with tissue fragment culture and antibiogram were included in the study sample. Microbiota resistance profile analyzed through WHO freeware softwares BACLINK 2.0 and WHONET 5.6.

[2] = test system: patients with DM1
Protocol: Methods: Observational and retrospective study in which they were analysed the medical recordo f patients with DM1 who made use of this medication in dose of 10 mg/day through 3-6 months.

[3] = test system: patient with type 2 diabetes mellitus
Protocol: Case report: M.G.G.A, person, married, sought an endocrinologist in 2014 due to the diagnosis of type 2 diabetes mellitus 3 years ago, they used glimeperide 4 mg/day and metformin (MTF) 1 g/day. They were hypertensive and dyslipidemic, already under treatment, and reported difficulty in losing and maintaining weight for several years. They denied physical activity (PA) practice for 1 month (before walking 3x/week) and in a 24-hour diet reminder there was an excess of simple carbohydrate (SC) intake and saturated fat (SF). […] The patient was oriented to change their lifestyle and it was also requested exams. […] At this time, due financial limitation, they were directed to maintain medications, prescribed vitamin D3 14,000 IU/week and stimulated lifestyle change (LC).

[4] = test system: healthy and non-diabetic women; details: after 7 days
Protocol: Methods: Twenty healthy and non-diabetic women (19–37 years old) were evaluated at baseline and 7 days after dapagliflozin (10 mg/day), maintaining their regular lifestyle. Body mass index (BMI), sagittal abdominal diameter, body composition by electrical bioimpedance and energy expenditure of resting and oxidation of energetic substrates in fasting by indirect calorimetry were analyzed. Functional magnetic resonance imaging detected the activation of brain areas against the stimulation of glucose and dapagliflozin. From the oral glucose tolerance test (TTOG), insulin sensitivity, hepatic insulin extraction and beta-cell function were assessed by mathematical modeling. Moreover, glucose, insulin, peptide C, glucacon, glycated hemoglobin, adiponectin and free fatty acids were measured.

[5] = test system: C57BL/6 mice
Protocol: Methods: C57BL/6 mice received vehicle or dapagliflozin (1, 5 or 10 mg/kg) by gavage once a day for 2 weeks. Body weight and food intake were evaluated at treatment times 0, 7 and 14 days. At the end of the treatment, glucose tolerance was evaluated by ipGTT as well as epididymal adipose tissue weight and neurotransmitters by immunofluorescence.

[6] = test system: patient with type 2 diabetes; details: in vivo
Protocol: An overweight person (BMI 37.4 kg/m^2) with a 9-year history of type 2 diabetes had been taking metformin (1 g/day), glyburide (10 mg/day) and vildaglipitin (100 mg/day) for 7 years. They were admitted for elective bariatric surgery and stopped their medications a day before. […] It is known that there are some factors that contribute for DKA, like decreasing in-carbohydrate intake, infection or reduction of insulin therapy.

[7] = test system: type 2 diabetic patient; experiment: Case report: liraglutide added to insulin degludec and metformin; assay type: in vivo, human; details: last evaluation
Protocol: patient one, type 2 diabetic for 3 years, using Gliclazide 60 mg/day and Metformin 1500 mg/day. They reported asthenia and difficulty losing weight. […] To optimize patient glycemic control and weight loss, Liraglutide 1.2 mg/day was initiated. […] The insulin dose was reduced to 10 U and reassessed in 30 days for possible discontinuation of insulin therapy. GLP- 1 receptor agonists stimulate insulin secretion in a […] manner, inhibit glucagon secretion and hepatic glucose output, delay gastric emptying, induce satiety, reduce appetite, and cause weight loss. […] It is a therapeutic option with action well established in weight loss, metabolic and glycemic improvement in the DM2 patient. However, its action on HbA1C reduction was independent of weight loss, evidencing intensive glycemic control with HbA1C between 6.5 and 7.0% even with discrete or even absent weight loss.

[8] = test system: participants with type 2 diabetes and high cardiovascular risk; experiment: LEADER trial, renal outcomes; assay type: in vivo, human
Source text: Background: The effects of liraglutide, a long-acting glucagon-like peptide-1(GLP-1) analog, on renal outcomes in type 2 diabetes are unknown. We conducted a randomized, double-blind, placebo-controlled trial comparing liraglutide vs placebo, both on a background of standard of care, in participants with type 2 diabetes and high cardiovascular risk.
Renal events were key secondary outcomes. The primary renal outcome was a composite of new onset of persistent macroalbuminuria, persistent doubling of serum creatinine, end stage renal disease (ESRD), or death due to renal disease. Risk of renal outcomes was determined using intention-to-treat in time-to-event analyses; competing risk of death was taken into account. Change of eGFR and loss of eGFR by > − 30% was also analyzed.

[9] = test system: patients after Roux-en-Y gastric bypass; experiment: Postprandial hyperinsulinemic hypoglycemia after RYGB, case series; assay type: in vivo, human; details: Case 1
Protocol: Cases report: Case (1) A person developed postprandial hypoglycemic episodes 6 years after Roux-en-Y gastric bypass (RYGB). A mixed meal tolerance test (MMTT, 500 kcal, 20% protein, 20% fat and 60% carbohydrates) was performed, leading to symptomatic postprandial hyperinsulinemic hypoglycemia (PHH) with a nadir of 45 mg/dL at 120 min (insulin of 8 mU/L; C-peptide of 3.21 ng/mL). […] Cases 2 and 3). Two […] women presented hypoglycemia following meals 3 and 5 years after RYGB. MMTT (120 min): glycemia of 34 mg/dL, insulin of 17 mU/L and C-peptide of 6.23 ng/mL and, in the second one, glycemia of 52 mg/dL, insulin of 9 mU/L and C-peptide of 2.7 ng/mL. PT and MRCP were normal in both cases. […] Case 4). A person who underwent RYGB 1.5 years ago reported hypoglycemic episodes in the last 6 months. MMTT: glycemia of 26 mg/dL at 150 min, insulin of 34 mU/L and C-peptide of 6.03 ng/mL. […] They were submitted to distal pancreatectomy and symptoms disappeared after diazoxid and hydrochlorothiazide. Case 5). A person developed hypoglycemia 10 years after RYGB. […] MMTT: glycemia of 43 mg/dL at 120 min, insulin of 100 mU/L and C-peptide of 1.95 ng/mL. […] Antiinsulin antibodies were negative in all cases (Table 1).

[10] = test system: patient with schizophrenia; experiment: New-onset diabetes caused by atypical antipsychotic, case report; assay type: in vivo, human
Source text: Case report: A patient, previously healthy, had been diagnosed with schizophrenia and started treatment with risperidone. Due to the lack of response, the medication was switched to olanzapine. After 2 years on the new treatment, however, they experienced polyuria, polydipsia and polyphagia, with a weight gain of approximately 12 kg in a period of 2 years. They were diagnosed with new-onset diabetes mellitus and hypertriglyceridemia and was referred to our center for evaluation. They were started on metformin 500 mg/day, NPH insulin 9 units before breakfast and 7 units bedtime, and bezafibrate 200 mg/day. […] LDL was not calculated due to the hypertriglyceridemia. Insulin was titrated to achieve glycemic control and autoantibodies (antiGAD, antiICA and anti-insulin) were requested, but they were negative. A letter was addressed to the psychiatry staff regarding olanzapine’s adverse events, which was exchanged to ziprasidone. […] Insulin dosing was reduced and further withdrawn 3 months after initiation of ziprasidone. Currently, 2 months thereafter, they are on good glycemic control with metformin and alogliptin.

[11] = test system: child with CGL type 2; experiment: Case report: high doses of insulin in congenital generalized lipodystrophy; assay type: in vivo, human; details: continuous IV infusion of RI raised to 26.6 IU/kg/day
Protocol: Case: Child with clinical diagnosis of CGL type 2 and diagnosis of diabetes for 1 year. Using Glargina and Lispro insulin basal/bolus (5.1 IU/kg/day) presented mean daily capillary glycemia above 600 mg/dl, associated with irritability, low weight and voracious appetite. Interned for intravenous insulin therapy and nutritional adjustment with standardized diet of 1600 kcal/day fractionated in 7 meals. Initiated continuous infusion of regular insulin (RI), 6.1UI/kg/day. […] Subsequently, it was modified to intramuscular administration, in 5 application times, without differences in glycemic averages. On the 36 th day, Degludeca insulin was introduced (9.3 IU/kg/day) associated with RI (18.2 U/kg/day), evolving within the first 24 h with improved glycemia (180 ± 42 mg/dl). […] After approximately fivefold increase in the initial insulin dose, there was improvement in glycemia, irritability, weight gain and decreased appetite.

Question: How did the “%R (resistance), Gram-positive” value [1] turn out when CO/N=C(\C(=O)N[C@@H]1C(=O)N2C(C(=O)O)=C(CSc3nc(=O)c(=O)[nH]n3C)CS[C@H]12)c1csc(N)n1 [Ceftriaxone] was run?
Answer: 70%

Question: CCOc1ccc(Cc2cc([C@@H]3O[C@H](CO)[C@@H](O)[C@H](O)[C@H]3O)ccc2Cl)cc1 [Dapaglifozin, dapagliflozin] was tested. Which “average BMI after treatment” value ([2]; 26.1 before, p = 0.002) did it give?
Answer: 25.4 kg/m^2

Question: What about the “systolic blood pressure, median after therapy” value ([2]; 120 mmHg before, p = 0.02) of the same compound?
Answer: 115 mmHg

Question: What about the patients with ketoacidosis ([2]; in vivo) of the same compound?
Answer: 8.3%

Question: And the “patients with pain or pruritus on genital region” value ([2]; in vivo)?
Answer: 33.3%

Question: And the “patients with urinary tract infection (UTI)” value ([2]; n = 12)?
Answer: 8.3%

Question: And the “average weight after therapy” value ([2]; n = 12, 68.3 kg before, p = 0.002)?
Answer: 65.3 kg

Question: What about the “weight (W)” value ([3]; 9 months of DAPA 10 mg/day and MTF 1 g/day, 78.6 kg before) of the same compound?
Answer: 69.9 kg

Question: What about the BMI ([3]; 9 months, 33.14 before) of the same compound?
Answer: 29.47 kg/m^2

Question: And the “abdominal circumference (AC)” value ([3]; 9 months, 108 cm before)?
Answer: 98 cm

Question: What about the “postprandial glycemia (PPG)” value ([3]; 9 months, 163 before) of the same compound?
Answer: 152 mg/dL

Question: What about the “fasting glycemia (FG)” value ([3]; 9 months, 166 before) of the same compound?
Answer: 118 mg/dL

Question: What about the Hb1Ac ([3]; 9 months, […] before) of the same compound?
Answer: 7.0%

Question: What about the HbA1c ([3]; during 3 years of follow-up) of the same compound?
Answer: around 6.8%

Question: And the “weight (W)” value ([3]; during 3 years of follow-up)?
Answer: 69 kg

Question: What about the adiponectin levels ([4]; 3.2 ± 1.4 at baseline, p = 0.02) of the same compound?
Answer: 5.7 ± 3.3 µg/mL

Question: What about the insulinemia ([4]; 5.7 ± 3.6 at baseline, p = 0.05) of the same compound?
Answer: 3.9 ± 3.5 mU/mL

Question: What about the BMI ([4]; 21.7 ± 2.0 at baseline, p = 0.05) of the same compound?
Answer: 21.5 ± 2.0 kg/m^2

Question: What about the fat percentage ([4]; 28.4 ± 6.3 at baseline, p = 0.46) of the same compound?
Answer: 27.6 ± 4.0%

Question: And the glycemia ([4]; 75 ± 7 at baseline, p = 0.02)?
Answer: 71 ± 7 mg/dL

Question: And the “body weight gain (mean)” value ([5]; 1, 5 or 10 mg/kg, 2 weeks, p < 0.05)?
Answer: 0.56 ± 1.1 g

Question: And the food intake ([5]; 2 weeks)?
Answer: did not alter food intake significantly

Question: And the “fasting glycemia (mean)” value ([5]; 2 weeks, p < 0.05)?
Answer: 165.6 ± 28.8 mg/dL

Question: And the “epididymal adipose mass (mean)” value ([5]; 2 weeks, p = 0.13)?
Answer: 0.15 ± 0.02 g

Question: What about the “area under glucose curve during the glucose tolerance test (mean)” value ([5]; ipGTT, p < 0.05) of the same compound?
Answer: 28,078 ± 5623.5 arbitrary units

Question: What about the “glycosuria (mean)” value ([5]; min = 30, max = 1221, p < 0.05) of the same compound?
Answer: 307.2 mg/dL

Question: What about the “arterial pH at readmission” value [6] of the same compound?
Answer: 7.23

Question: And the bicarbonate at readmission [6]?
Answer: 5 mEq/L

Question: What about the glucose at readmission [6] of the same compound?
Answer: 165 mg/dL

Question: CC[C@H]1OC(=O)[C@H](C)[C@@H](O[C@H]2C[C@@](C)(OC)[C@@H](O)[C@H](C)O2)[C@H](C)[C@@H](O[C@@H]2O[C@H](C)C[C@H](N(C)C)[C@H]2O)[C@](C)(O)C[C@@H](C)C(=O)[C@H](C)[C@@H](O)[C@]1(C)O [Erythromycin] was tested. Which “%R (resistance), Gram-positive” value [1] did it give?
Answer: 70%

Question: What does the source list for CCCCCCCCCCCCCCCC(=O)N[C@@H](CCC(=O)NCCCC[C@H](NC(=O)[C@H](C)NC(=O)[C@H](C)NC(=O)[C@H](CCC(N)=O)NC(=O)CNC(=O)[C@H](CCC(=O)O)NC(=O)[C@H](CC(C)C)NC(=O)[C@H](Cc1ccc(O)cc1)NC(=O)[C@H](CO)NC(=O)[C@H](CO)NC(=O)[C@@H](NC(=O)[C@H](CC(=O)O)NC(=O)[C@H](CO)NC(=O)[C@@H](NC(=O)[C@H](Cc1ccccc1)NC(=O)[C@@H](NC(=O)CNC(=O)[C@H](CCC(=O)O)NC(=O)[C@H](C)NC(=O)[C@@H](N)Cc1c[nH]cn1)[C@@H](C)O)[C@@H](C)O)C(C)C)C(=O)N[C@@H](CCC(=O)O)C(=O)N[C@@H](Cc1ccccc1)C(=O)N[C@H](C(=O)N[C@@H](C)C(=O)N[C@@H](Cc1c[nH]c2ccccc12)C(=O)N[C@@H](CC(C)C)C(=O)N[C@H](C(=O)N[C@@H](CCCNC(=N)N)C(=O)NCC(=O)N[C@@H](CCCNC(=N)N)C(=O)NCC(=O)O)C(C)C)[C@@H](C)CC)C(=O)O [Liraglutide]?
Answer: HbA1c [7]: 6.4%; total weight loss ([7]; […] of total weight): 6 kg; albuminuria vs placebo ([8]; in vivo): increased less; eGFR vs placebo ([8]; in vivo): decreased significantly less; primary renal outcome, participants ([8]; median follow-up 3.84 years, placebo 337 of 4672): 268 of 4668; primary renal outcome, HR vs placebo ([8]; p = 0.003): 0.787 [0.670;0.924]; new onset of persistent macroalbuminuria, HR vs placebo ([8]; p = 0.004): 0.74 [0.61;0.91]; new onset of persistent macroalbuminuria, participants ([8]; placebo 215 of 4672): 161 of 4668

Question: Cc1onc(-c2ccccc2)c1C(=O)N[C@@H]1C(=O)N2[C@@H]1SC(C)(C)[C@@H]2C(=O)O [Oxacillin] was tested. Which “%R (resistance), Gram-positive” value [1] did it give?
Answer: 70%

Question: How did the “clinical response of postprandial hypoglycemia” value [9] turn out when CC1=Nc2ccc(Cl)cc2S(=O)(=O)N1 [diazoxid] was run?
Answer: hypoglycemia was avoided

Question: How did the HDL ([10]; After 2 years on olanzapine) turn out when Cc1cc2c(s1)Nc1ccccc1N=C2N1CCN(C)CC1 [olanzapine] was run?
Answer: 65 mg/dL

Question: And the Total cholesterol ([10]; After 2 years on olanzapine)?
Answer: 570 mg/dL

Question: What about the triglycerides ([10]; After 2 years on olanzapine) of the same compound?
Answer: 3455 mg/dL

Question: What about the weight gain ([10]; period of 2 years on olanzapine) of the same compound?
Answer: approximately 12 kg

Question: Which mean capillary glycemia [11] does the source give for RI: regular insulin here?
Answer: 283 ± 99 mg/dL
